Reference: patent US6028195A, “Piperazine derivatives and process for the preparation thereof” (Samjin Pharmaceutical Co., Ltd., priority 1996, dated 2000)
Converted amounts (≈) assume the structure as drawn. Read-outs that look alike come from different tables or passages of the source.

Tests used:
[1] = tested on: A549 (human non-small lung cell); experiment: SRB assay, in vitro antitumor effect against A549; type: cell-based; details: Homo sapiens
Procedure, shortened: (§1)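 SRB read-out at 520 nm after TCA fixation, with time-zero plates collected when drug was added. Cells (5×10^3–2×10^4/well) pre-cultured 24 h, then treated 48 h; final DMSO below 0.5%. Growth/kill response derived from Tz, untreated control and treated OD values.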

[2] = tested on: mouse leukemia P388 cells; experiment: In vivo antitumor effects against mouse leukemia P388 cells in BDF1 mice; details: P388, ip, abdominal cavity
Description: In vivo antitumor effects against mouse leukemia P388 cells.
1) Leukemia P388 cells being transfer-cultured successively in DBA/2 mouse, were grafted into each mouse of a group comprising 8 mice of 6 week old BDF1 mouse with the dose of 1×10^6 cells/0.1 ml. […]
3) With observation everyday, survival times of tested mice were measured. Antitumor activities was determined in such a manner that the increasing ratio(T/C%) of average survival days of drug-treated groups compared with the control group was calculated using the mean survival times of each tested groups.

[3] = tested on: SKOV-3 (human ovarian); experiment: SRB assay, in vitro antitumor effect against SKOV-3; type: cell-based; details: Homo sapiens; SK-OV-3, 48 hours; read-out: ED50 (the source's name)
Procedure, shortened: as §1

[4] = Acute toxicity test (LD50), Litchfield-Wilcoxon method; details: mouse, in vivo, ip, male ICR mice, 14 days
Description: Acute toxicity test (LD50): Litchfield-Wilcoxon method.
6 weeks old ICR mice(male 30±2.0 g) were fed freely with solid feed and water at room temperature, 23±1° C. and at humidity 60±5%. Sample drugs were injected into the abdominal cavities of mice, while each group comprises 6 mice. Observed during 14 days, external appearances and life or dead were recorded, and then, visible pathogenies were observed from dead animals by dissection. LD50 value was calculated by Litchfiled-wilcoxon method.

[5] = tested on: HCT-15 (human colon); experiment: SRB assay, in vitro antitumor effect against HCT-15; type: cell-based; details: Homo sapiens; HCT 15, 48 hours; read-out: ED50 (the source's name)
Procedure, shortened: as §1

[6] = tested on: XF 498 (human CNS); experiment: SRB assay, in vitro antitumor effect against XF 498; type: cell-based; details: Homo sapiens, XF498; XF-498, 48 hours; read-out: ED50 (the source's name)
Procedure, shortened: as §1

[7] = tested on: SKMEL-2 (human melanoma); experiment: SRB assay, in vitro antitumor effect against SKMEL-2; type: cell-based; details: Homo sapiens; SK-MEL-2, 48 hours; read-out: ED50 (the source's name)
Procedure, shortened: as §1

[8] = A549, 48 hours, read-out: ED50 (the source's name)
[9] = nine everyday, read-out: T/C(%)
[10] = on days 1, 5, 9, read-out: T/C(%)
[11] = on days 1, 4, 8, read-out: T/C(%)

**Q.** What does the source list for `C=Cc1cc(NC(=O)N2CCN(c3cc(OC)cc(OC)c3)CC2)c(OC)nc1C` [Example 73, 1-[(2-Methoxy-6-methyl-5-vinylpyridin-3-yl)aminocarbonyl]-4-(3,5-dimethoxyphenyl)piperazine]?
**A.** IC50 [1, 8]: 0.01 µg/mL (≈ 0.0242 µM); response vs control in vivo at 10 mg/kg [2, 9]: 140%; response vs control in vivo at 25 mg/kg [2, 9]: 150%; response vs control in vivo at 50 mg/kg [2, 9]: 180%; IC50 [3]: 0.0054 µg/mL (≈ 0.0131 µM); LD50 at 336 h [4]: 250 mg/kg; IC50 [5]: 0.012 µg/mL (≈ 0.0291 µM); IC50 [6]: 0.013 µg/mL (≈ 0.0315 µM); IC50 [7]: 0.02 µg/mL (≈ 0.0485 µM)

**Q.** Which IC50 [1, 8] does the source give for `C=Cc1cc(NC(=O)N2CCN(c3cc(C)cc(C)c3)CC2)c(OC)nc1C` [Example 74, 1-[(2-Methoxy-6-methyl-5-vinylpyridin-3-yl)aminocarbonyl]-4-(3,5-dimethylphenyl)piperazine] here?
**A.** 0.016 µg/mL (≈ 0.0421 µM)

**Q.** What about the response vs control in vivo at 10 mg/kg [2, 9] of the same compound?
**A.** 140%

**Q.** What about the response vs control in vivo at 25 mg/kg [2, 9] of the same compound?
**A.** 150%

**Q.** What about the response vs control in vivo at 50 mg/kg [2, 9] of the same compound?
**A.** 250%

**Q.** What about the IC50 [3] of the same compound?
**A.** 0.0138 µg/mL (≈ 0.0363 µM)

**Q.** What about the LD50 at 336 h [4] of the same compound?
**A.** 361 mg/kg

**Q.** And the IC50 [5]?
**A.** 0.021 µg/mL (≈ 0.0552 µM)

**Q.** And the IC50 [6]?
**A.** 0.026 µg/mL (≈ 0.0683 µM)

**Q.** What about the IC50 [7] of the same compound?
**A.** 0.02 µg/mL (≈ 0.0526 µM)

**Q.** Which IC50 ([1]; A549, 48 h, read-out: ED50) does the source give for `COc1cc(OC)cc(N2CCN(C(=O)Nc3cc4ccccc4nc3OC)CC2)c1` [Example 81, 1-[(2-Methoxyquinolin-3-yl)aminocarbonyl]-4-(3,5-dimethoxyphenyl)piperazine] here?
**A.** 0.0032 µg/mL (≈ 0.00757 µM)

**Q.** And the response vs control in vivo at 10 mg/kg [2, 9]?
**A.** 140%

**Q.** What about the response vs control in vivo at 25 mg/kg [2, 9] of the same compound?
**A.** 140%

**Q.** And the response vs control in vivo at 50 mg/kg [2, 9]?
**A.** 210%

**Q.** What about the response vs control in vivo at 50 mg/kg [2, 10] of the same compound?
**A.** 127%

**Q.** And the response vs control in vivo at 100 mg/kg [2, 10]?
**A.** 146%

**Q.** What about the response vs control in vivo at 200 mg/kg [2, 10] of the same compound?
**A.** 218%

**Q.** And the IC50 [3]?
**A.** 0.0007 µg/mL (≈ 0.00166 µM)

**Q.** And the LD50 at 336 h [4]?
**A.** 1600 mg/kg

**Q.** And the IC50 [5]?
**A.** 0.0054 µg/mL (≈ 0.0128 µM)

**Q.** And the IC50 [6]?
**A.** 0.0097 µg/mL (≈ 0.023 µM)

**Q.** What about the IC50 [7] of the same compound?
**A.** 0.0107 µg/mL (≈ 0.0253 µM)

**Q.** For `COc1nc2ccccc2cc1NC(=O)N1CCN(c2cc(C)cc(C)c2)CC1` [Example 82, 1-[(2-Methoxyquinolin-3-yl)aminocarbonyl]-4-(3,5-dimethylphenyl)piperazine], which IC50 [1, 8] is on record?
**A.** 0.0676 µg/mL (≈ 0.173 µM)

**Q.** What about the response vs control in vivo at 50 mg/kg [2, 10] of the same compound?
**A.** 100%

**Q.** And the response vs control in vivo at 100 mg/kg [2, 10]?
**A.** 127%

**Q.** And the IC50 [3]?
**A.** 0.0249 µg/mL (≈ 0.0638 µM)

**Q.** And the LD50 at 336 h [4]?
**A.** 700 mg/kg

**Q.** And the IC50 [5]?
**A.** 0.0346 µg/mL (≈ 0.0886 µM)

**Q.** And the IC50 [6]?
**A.** 0.0479 µg/mL (≈ 0.123 µM)

**Q.** And the IC50 [7]?
**A.** 0.0754 µg/mL (≈ 0.193 µM)

**Q.** With `COc1cc(C)c(C)cc1NC(=O)N1CCN(c2cc(C)cc(C)c2)CC1` [Example 172, 1-[(4,5-Dimethyl-2-methoxyphenyl)aminocarbonyl]-4-(3,5-dimethylphenyl)piperazine] as the compound, how does the IC50 [1, 8] read?
**A.** 0.0047 µg/mL (≈ 0.0128 µM)

**Q.** And the response vs control in vivo at 50 mg/kg [2, 11]?
**A.** 118%

**Q.** And the response vs control in vivo at 100 mg/kg [2, 11]?
**A.** 127%

**Q.** And the response vs control in vivo at 200 mg/kg [2, 11]?
**A.** 191%

**Q.** And the IC50 [3]?
**A.** 0.0097 µg/mL (≈ 0.0264 µM)

**Q.** And the LD50 at 336 h [4]?
**A.** 723 mg/kg

**Q.** What about the IC50 [5] of the same compound?
**A.** 0.018 µg/mL (≈ 0.049 µM)

**Q.** And the IC50 [6]?
**A.** 0.0086 µg/mL (≈ 0.0234 µM)

**Q.** What about the IC50 [7] of the same compound?
**A.** 0.0233 µg/mL (≈ 0.0634 µM)
